Test results as given in patent US10947188B2, “Small molecule ferroptosis inducers” (THE TRUSTEES OF COLUMBIA UNIVERSITY IN THE CITY OF NEW YORK, priority 2016, dated 2021).

What was measured:
HT-1080 = assay: Modulatory profiling: Alamar Blue viability, lethal compound cotreated with death modulator (EC50, AUC); assay type: cell-based; design: AUC, modulator HT.3MA / AUC, modulator HT.ALLN / AUC HT.ATA / AUC HT.ActD / AUC HT.BHA / AUC HT.BHT / AUC HT.BocD / AUC HT.CHX / AUC HT.Co2+ / AUC HT.DPQ / AUC HT.EGTA / AUC HT.Lmim / AUC HT.NAD+ / AUC HT.Nec-1 / AUC HT.SP600125 / AUC HT.TLCK / AUC HT.U0126: unit not given beside the values; conditions: for AUC HT.ATA: HT-1080, modulator ATA; for AUC HT.ActD: HT-1080, modulator ActD; for AUC HT.BHA: HT-1080, modulator BHA; for AUC HT.BHT: HT-1080, modulator BHT; for AUC HT.BocD: HT-1080, modulator BocD; for AUC HT.CHX: HT-1080, modulator CHX; for AUC HT.Co2+: HT-1080, modulator Co2+; for AUC HT.CspA: HT-1080, modulator CspA; for AUC HT.DPQ: HT-1080, modulator DPQ; for AUC HT.EGTA: HT-1080, modulator EGTA; for AUC HT.Gd3+: HT-1080, modulator Gd3+; for AUC HT.LNAME: HT-1080, modulator LNAME; for AUC HT.Lmim: HT-1080, modulator Lmim; for AUC HT.NAD+: HT-1080, modulator NAD+; for AUC HT.NMMA: HT-1080, modulator NMMA; for HT.atoc (AUC) / HT.bCarotene (AUC) / HT.deferox (AUC) / HT.digoxin (AUC) / HT.trolox (AUC) / HT.zVAD (AUC): HT-1080; for HT.atoc (AUC): modulator atoc; for HT.bCarotene (AUC): modulator bCarotene; for HT.deferox (AUC): modulator deferox; for HT.digoxin (AUC): modulator digoxin; for HT.trolox (AUC): modulator trolox; for HT.zVAD (AUC): modulator zVAD; on AUC HT.BHA: reference of the scale not given here; on AUC HT.EGTA: reference of the scale not given here
BJeLR = assay: as above; assay type: cell-based, human; design: AUC, modulator BJ.Gd3+ / AUC, modulator BJ.LNAME / AUC, modulator BJ.Lmin / AUC, modulator BJ.3MA / AUC, modulator BJ.ALLN / AUC, modulator BJ.Boc D / AUC, modulator BJ.CHX / AUC, modulator BJ.Co2+ / AUC, modulator BJ.Nec-1 / AUC, modulator BJ.Pepstatin / AUC, modulator BJ.TLCK / AUC, modulator BJ.atoc / AUC, modulator BJ.trolox / AUC, modulator BJ.zVAD: unit not given beside the values; conditions: BJeLR cells, modulatory profile value (AUC); for AUC, modulator BJ.3MA: lethal compound cotreated with modulator 3MA; for AUC, modulator BJ.ALLN: lethal compound cotreated with modulator ALLN; for AUC, modulator BJ.Boc D: lethal compound cotreated with modulator Boc D; for AUC, modulator BJ.CHX: lethal compound cotreated with modulator CHX; for AUC, modulator BJ.Co2+: lethal compound cotreated with modulator Co2+; for AUC, modulator BJ.DPQ: lethal compound cotreated with modulator DPQ; for AUC, modulator BJ.Gd3+: lethal compound cotreated with modulator Gd3+; for AUC, modulator BJ.LNAME: lethal compound cotreated with modulator LNAME; for AUC, modulator BJ.Lmin/NAD+: lethal compound cotreated with modulator Lmin/NAD+; for AUC, modulator BJ.Lmin: lethal compound cotreated with modulator Lmin; for AUC, modulator BJ.NAD+: lethal compound cotreated with modulator NAD+; for AUC, modulator BJ.NMMA: lethal compound cotreated with modulator NMMA; for AUC, modulator BJ.Nec-1: lethal compound cotreated with modulator Nec-1; for AUC, modulator BJ.Pepstatin: lethal compound cotreated with modulator Pepstatin; for AUC, modulator BJ.TLCK: lethal compound cotreated with modulator TLCK; on AUC, modulator BJ.3MA: reference of the scale not given here; on AUC, modulator BJ.ALLN: reference of the scale not given here; on AUC, modulator BJ.Boc D: reference of the scale not given here; on AUC, modulator BJ.CHX: reference of the scale not given here; on AUC, modulator BJ.Co2+: reference of the scale not given here; on AUC, modulator BJ.DPQ: reference of the scale not given here; on AUC, modulator BJ.Gd3+: reference of the scale not given here; on AUC, modulator BJ.LNAME: reference of the scale not given here; on AUC, modulator BJ.NAD+: reference of the scale not given here; on AUC, modulator BJ.NMMA: reference of the scale not given here; on AUC, modulator BJ.Nec-1: reference of the scale not given here; on AUC, modulator BJ.Pepstatin: reference of the scale not given here; on AUC, modulator BJ.TLCK: reference of the scale not given here

| Structure (SMILES) | AUC HT.ATA (HT-1080) | AUC HT.ActD (HT-1080) | AUC HT.BHA (HT-1080) | AUC HT.BHT (HT-1080) | AUC HT.BocD (HT-1080) | AUC HT.CHX (HT-1080) | AUC HT.Co2+ (HT-1080) | AUC HT.CspA (HT-1080) | AUC HT.DPQ (HT-1080) | AUC HT.EGTA (HT-1080) | AUC HT.Gd3+ (HT-1080) | AUC HT.LNAME (HT-1080) | AUC HT.Lmim (HT-1080) | AUC HT.NAD+ (HT-1080) | AUC HT.NMMA (HT-1080) | HT.atoc (AUC) (HT-1080) | HT.bCarotene (AUC) (HT-1080) | HT.deferox (AUC) (HT-1080) | HT.digoxin (AUC) (HT-1080) | HT.trolox (AUC) (HT-1080) | other results |
| --- | --- | --- | --- | --- | --- | --- | --- | --- | --- | --- | --- | --- | --- | --- | --- | --- | --- | --- | --- | --- | --- |
| COC(=O)c1[nH]c2ccc(Br)cc2c1NC(=O)CN1CCN(C2CCCCC2)CC1 [CIL71] | 0.03481 | 0.0007018 | −0.05622 | −0.05839 | 0.01089 | 0.0761 | 0.02342 | −0.03233 | −0.003505 | −0.02298 | −0.01552 | 0.02366 | −0.002609 | 0.01546 | −0.0007859 | 0.03733 | −0.01281 | −0.003654 | −0.01046 | −0.01311 | HT.zVAD (AUC) (HT-1080): 0.01756; AUC, modulator BJ.3MA (BJeLR): 0.01151; AUC, modulator BJ.ALLN (BJeLR): −0.05589; AUC, modulator BJ.Boc D (BJeLR): 0.0152; AUC, modulator BJ.CHX (BJeLR): −0.06352; AUC, modulator BJ.Co2+ (BJeLR): 0.02676; AUC, modulator BJ.DPQ (BJeLR): 0.03052; AUC, modulator BJ.Gd3+ (BJeLR): 0.01394; AUC, modulator BJ.LNAME (BJeLR): 0.001204; AUC, modulator BJ.Lmin/NAD+ (BJeLR): 0.001502; AUC, modulator BJ.Lmin (BJeLR): −0.02138; AUC, modulator BJ.NAD+ (BJeLR): −0.03656; AUC, modulator BJ.NMMA (BJeLR): −0.000118; AUC, modulator BJ.Nec-1 (BJeLR): −0.02956; AUC, modulator BJ.Pepstatin (BJeLR): −0.01112; AUC, modulator BJ.TLCK (BJeLR): 0.01514 |
| O=C(Oc1ccc(Cl)c2cccnc12)c1ccco1 [CIL58] | 0.05141 | 0.02044 | −0.03989 | −0.1355 | −0.02082 | −0.05674 | 0.09509 | 0.06761 | −0.005922 | 0.05184 | −0.004674 | −0.09982 | −0.07257 | −0.06539 | −0.09083 | 0.03305 | 0.08558 | 0.08912 | 0.0229 | −0.04791 | HT.zVAD (AUC) (HT-1080): 0.02459; AUC, modulator BJ.3MA (BJeLR): 0.03403; AUC, modulator BJ.ALLN (BJeLR): 0.01846; AUC, modulator BJ.Boc D (BJeLR): −0.007995; AUC, modulator BJ.CHX (BJeLR): −0.04911; AUC, modulator BJ.Co2+ (BJeLR): 0.2386; AUC, modulator BJ.DPQ (BJeLR): 0.009922; AUC, modulator BJ.Gd3+ (BJeLR): 0.02131; AUC, modulator BJ.LNAME (BJeLR): −0.02811; AUC, modulator BJ.Lmin/NAD+ (BJeLR): 0.02713; AUC, modulator BJ.Lmin (BJeLR): −0.009172; AUC, modulator BJ.NAD+ (BJeLR): 0.02238; AUC, modulator BJ.NMMA (BJeLR): −0.05299; AUC, modulator BJ.Nec-1 (BJeLR): 0.0983; AUC, modulator BJ.Pepstatin (BJeLR): 0.07532; AUC, modulator BJ.TLCK (BJeLR): 0.1505 |
| CC(C(NNC(=O)c1ccc(C(F)(F)F)cc1)c1ccc(Br)cc1)[N+](=O)[O-] (stereo not drawn) [CIL87] | 0.1137 | −0.007586 | −0.003358 | −0.08317 | −0.007134 | 0.0673 | 0.03163 | −0.05358 | −0.02562 | 0.005305 | −0.02756 | 0.005257 | −0.002116 | −0.001926 | −0.01237 | 0.05929 | 0.01927 | 0.07034 | 0.04582 | −0.03188 | HT.zVAD (AUC) (HT-1080): 0.02258; AUC, modulator BJ.3MA (BJeLR): −0.002764; AUC, modulator BJ.ALLN (BJeLR): −0.08721; AUC, modulator BJ.Boc D (BJeLR): −0.0134; AUC, modulator BJ.CHX (BJeLR): 0.295; AUC, modulator BJ.Co2+ (BJeLR): 0.1416; AUC, modulator BJ.DPQ (BJeLR): −0.03202; AUC, modulator BJ.Gd3+ (BJeLR): 0.0149; AUC, modulator BJ.LNAME (BJeLR): 0.02319; AUC, modulator BJ.Lmin/NAD+ (BJeLR): 0.07639; AUC, modulator BJ.Lmin (BJeLR): 0.0007714; AUC, modulator BJ.NAD+ (BJeLR): −0.03293; AUC, modulator BJ.NMMA (BJeLR): −0.007384; AUC, modulator BJ.Nec-1 (BJeLR): −0.0482; AUC, modulator BJ.Pepstatin (BJeLR): −0.03283; AUC, modulator BJ.TLCK (BJeLR): 0.003206 |
